Data from paper PMC7762503, “Pathomechanism characterization and potential therapeutics identification for SCA3 targeting neuroinflammation” (Aging (Albany NY), 2020).

What was measured:
[1] = MTT cytotoxicity assay, HMC3 cells; format: cell-based; conditions: human, 0.1−100 μM, 28 h treatment, read-out: IC50 (cytotoxicity, MTT viability)
Experimental: (§1) To evaluate compound cytotoxicity, 2 × 10^4 (HMC3) or 1 × 10^4 (SH-SY5Y) cells were plated on 48-well dishes, grown for 20 h, and treated with the tested compounds (0.1−100 μM). After 28 h (HMC3) or 6 days (SH-SY5Y), 20 μl of 3-(4,5-dimethylthiazol-2-yl)-2,5-diphenyltetrazolium bromide (MTT) (5 mg/ml) was added to the cells at 37°C for 3 h. 200 μl of lysis buffer (10% Triton X-100, 0.1 N HCl, 18% isopropanol) was then added to dishes and the absorbance of the insoluble purple formazan product at OD 570 nm was read by a FLx800 fluorescence microplate spectrophotometer (Bio-Tek, Winooski, VT, USA). The IC50 of the tested compounds were calculated using the interpolation method.

[2] = MTT cytotoxicity assay, SH-SY5Y cells; format: cell-based; conditions: human, 0.1−100 μM, 6 days treatment, read-out: IC50 (cytotoxicity, MTT viability)
Experimental: as §1

[3] = DPPH radical-scavenging assay; conditions: 200 μM DPPH, compounds 10–160 μM, 30 min, room temperature
Experimental: The DPPH radical-scavenging activity was measured in an ethanol mixture containing 200 μM DPPH (Sigma-Aldrich) radical solution and the tested compounds (10–160 μM). The solution was vortexed and incubated for 30 min at room temperature. The scavenging capacity was measured by monitoring the decrease in absorbance at 517 nm with a microplate spectrophotometer (Multiskan GO, Thermo Fisher Scientific). The half maximal effective concentrations (EC50) for inhibition of the formation of DPPH radicals were calculated using the interpolation method.

ATXN3/Q75-GFP [4] = test: High content polyQ aggregation analysis, ATXN3/Q75-GFP SH-SY5Y cells; format: cell-based, human; conditions: 10 μM compound, ATXN3/Q75-GFP-expressing cells; for reduction of aggregation: vs untreated 2.8%
Experimental: (§2) ATXN3/Q75-GFP SH-SY5Y cells were plated on 24-well (1 × 10^4/well) dishes, and retinoic acid (10 μM; Sigma-Aldrich) was added to initiate neuronal differentiation. On the second day, cells were treated with the tested compound (10 μM) for 8 h before ATXN3-GFP expression induction by adding doxycycline (5 μg/ml). For comparison, cells without inducing ATXN3/Q75-GFP expression were included. The cells were kept in the medium containing retinoic acid, doxycycline and test compound for 6 days. For the cells with inflammatory stimulation, HMC3 conditioned medium with (CM/+IFN-γ) or without (CM/–IFN-γ) IFN-γ stimulation was added at a 1:1 ratio in the last two days. On the eighth day, cells were stained with Hoechst 33342 (0.1 μg/ml; Sigma-Aldrich) for 30 min, and images of the cells were automatically obtained using an ImageXpressMICRO high content analysis (HCA) system (Molecular Devices, San Jose, CA, USA). Excitation/emission filters were at 482/536 and 377/447 nm for enhanced GFP and Hoechst 33342, respectively. Aggregation was determined by Transfluor technology based on GFP fluorescence intensity. Neurite length, process and branch of ATXN3/Q75-GFP-expressing cells were analyzed by using Metamorph microscopy automation and image analysis software (neurite outgrowth application module, Molecular Devices). In addition, cells were fixed, permeated and stained with neuronal class III β-tubulin (TUBB3) antibody (1:1000; Covance, Princeton, NJ, USA), followed by anti-rabbit Alexa Fluor ®555 antibody (1:1000; Thermo Fisher Scientific) for neurite outgrowth analysis. To quantify neurite outgrowth, microscopic images were segmented with multi-colored mask to assign each outgrowth to a cell body for quantification. In general, 10^4 cells in each biological replicate were analyzed.

[5] = system: ATXN3/Q75-GFP SH-SY5Y cells; test: Neurite outgrowth analysis, ATXN3/Q75-GFP SH-SY5Y cells; format: cell-based, human; conditions: 10 μM compound, ATXN3/Q75-GFP-expressing cells; for neurite branch: untreated 1.0; for neurite process: untreated 1.8; for neurite length: untreated 23.6 μm
Experimental: as §2

[6] = system: ATXN3/Q75-GFP SH-SY5Y cells; test: Neurite outgrowth analysis, CM/+IFN-γ-inflamed ATXN3/Q75-GFP SH-SY5Y cells; format: cell-based, human; conditions: 10 μM compound; for neurite process: untreated 1.4; for neurite length: untreated 14.4 μm
Experimental: as §2

ATXN3/Q75-GFP [7] = test: Western blot of soluble ATXN3/Q75-GFP protein; format: cell-based, human; conditions: 10 μM compound; without compound = 100%
Experimental: Cells were lysed using buffer (50 mM Tris-HCl pH8.0, 0.5% sodium deoxycholate, 0.1% SDS, 150 mM NaCl, 2 mM EDTA, 50 mM NaF and 1% NP40) containing the protease inhibitor cocktail (Sigma-Aldrich). After sonication, the lysates were centrifuged at 12,000 × g for 10 min at 4°C. Protein concentrations were determined using a protein assay kit (Bio-Rad, Hercules, CA, USA), with albumin as standards. Total soluble proteins (20 μg) were electrophoresed on 10% SDS-polyacrylamide gel and transferred onto polyvinylidene difluoride membrane (Sigma-Aldrich) by reverse electrophoresis. After being blocked, the membrane was stained with ATXN3 (1:1000; GeneTex, Irvive, CA, USA), GFP (1:1000; Santa Cruz Biotechnology, Santa Cruz, CA, USA), CD68 (1:1000; Cell Signaling), IκBα (1:1000; Cell Signaling), p-IκBα (S32/36) (1:1000; Cell Signaling), P65 (1:1000; Cell Signaling), p-P65 (S536) (1:1000; Cell Signaling), JNK (1:1000; Cell Signaling), p-JNK (T183/Y185) (1:500; Cell Signaling), JUN, p-JUN (S63) (1:1000; Cell Signaling), P38 (1:1000; Cell Signaling), p-P38 (T180/Y182) (1:1000; Cell Signaling), STAT1 (1:1000; Cell Signaling), p-STAT1 (S727) (1:1000; Cell Signaling), or GAPDH (1:5000; MDBio Inc., Taipei, Taiwan) primary antibody at room temperature 2 h or 4°C overnight. The immune complexes were detected using horseradish peroxidase (HRP)-conjugated goat anti-mouse or goat anti-rabbit IgG antibody (1:5000; GeneTex) and chemiluminescent HRP substrate (Millipore, Billerica, MA, USA).

Compound	IC50 at 28 h [1] [µM]	IC50 at 6 days [2] [µM]	EC50 [3] [µM]	polyQ aggregation (cells with aggregates) (ATXN3/Q75-GFP [4]; untreated 2.8%)	neurite branch [5]	neurite process [5]	neurite length [5]	neurite process [6]	neurite length [6]	DPPH scavenging activity EC50 [3]	reduction of aggregation (ATXN3/Q75-GFP [4])	soluble ATXN3/Q75-GFP protein (Western blot, GFP antibody) (ATXN3/Q75-GFP [7])	neurite branch ([6]; untreated 0.6)
CCCCC/C=C\C/C=C\C/C=C\C/C=C\CCCC(=O)Nc1ccc(O)cc1 [AM404, reference compound]	84	49	141	not reducing ATXN3/Q75 aggregation	1.4	2.2	30.8 μm	1.6	17.3–18.0 μm	–	–	–	–
CC(=O)/C(=C/c1ccccc1[N+](=O)[O-])Cc1c[nH]c2ccccc12 [NC009-1]	> 100	52	–	–	1.2	2.0–2.1	26.9–27.2 μm	1.6	17.3–18.0 μm	no detectable DPPH-scavenging activity	12–25%	144−173%	–
O=c1c(O)c(-c2ccc(O)cc2)oc2cc(O)cc(O)c12 [Kaempferol, kaempferol, reference compound]	–	–	27	–	–	–	–	–	–	–	–	–	–
O=[N+]([O-])c1cccc2nc(/C=C/c3cc4ccccc4nc3N3CCOCC3)ccc12 [VB-037]	> 100	78	–	–	1.2	2.0–2.1	26.9–27.2 μm	–	–	no detectable DPPH-scavenging activity	12–25%	144−173%	–
O=C(c1ccccc1)c1cc2c(O)cccc2oc1=O [LM-031, 3-benzoyl-5-hydroxychromen-2-one]	> 100	> 100	100	–	1.2	2.0–2.1	26.9–27.2 μm	1.6	17.3–18.0 μm	–	12–25%	144−173%	0.8
